Laboratory results: US5482970A (priority 1993, dated 1996)

How the values were obtained:
[1] = In vitro skin permeation and metabolism, two-compartment diffusion cell (Example 6); assay type: in vitro ADME, hairless mouse (HRS/J strain); settings: for metabolised at 5 h: mouse, of total permeated, read-out: % Metabolite; for Transdermal Flux Q1, Inocoterone: metabolite from applied inocoterone acetate
Source text: (§1) The freshly excised hairless mouse skin was used in the two-compartment diffusion cell method of Chlen et at., Drug Development and Industrial Pharmacy, 11, […] (1985). The hairless mouse (HRS/J strain) was sacrificed just prior to the experiment by cervical dislocation. A square section of the abdominal skin was surgically removed and mounted between two side-by-side half cells; the exposed area of the skin being approximately 0.64 cm^2. A 1-10% weight/volume (w/v) solution of inocoterone acetate and vehicle was added to the donor compartment and a 40% w/v polyethylene glycol 400/normal saline solution was added to the receptor compartment. Simultaneous skin permeation and biotransformation studies Were conducted in a thermostated diffusion cell apparatus at 37° C. At appropriate intervals samples were withdrawn from the receptor compartment and analyzed for inocoterone acetate and its metabolite, inocoterone, by high pressure liquid chromatography. […] Each experiment was carried out in at least triplicate. This method was used in Examples 3 to 6.
Compositions of 10% w/v of inocoterone acetate in vehicle solutions were prepared by dissolving 1 g of the medicament in 10 ml of a mixture of isopropyl myristate and 95% ethanol in the following volume percent ratios: 100:0, 95:5, 70:30, 60:40, 50:50, 40:60, 30:70, 5:95 and 0:100, respectively. The in vitro skin permeation and metabolism rates were measured using the method described under the in vitro skin permeation test method. The results of these measurements, in terms of the cumulative mount of unchanged medicament and its metabolite permeated in μmoles per square centimeter with time, over 5 hours are given in FIG. 1.
In this example, the results of the use of ethanol as the polar organic solvent in combination with various fatty acid esters for the simultaneous skin permeation and metabolism of inocoterone acetate solution are shown.

[2] = In vitro skin permeation and metabolism of Carbopol 940 gels, Franz diffusion cell (Example 13); assay type: in vitro ADME, hairless mouse; settings: for metabolised at 5 h: mouse, read-out: % Metabolite; for Transdermal Flux Q1, Inocoterone: metabolite
Description: For the evaluation of pharmaceutical compositions of the present invention, the freshly excised hairless mouse skin was used in the diffusion cell method of Franz, Current Problems in Dermatology, 7, 58-68 (1978), in a vertical position, the exposed area of the skin being approximately 1.8 cm^2. The pharmaceutical formulation of known concentration in vehicle was added to the upper compartment of the cell, which was exposed to the stratum corneum side of the skin, and a 40% polyethylene glycol 400/normal saline solution was placed in the lower compartment The penetration and metabolism rates were studied in a thermostated diffusion cell at 37° C. using the analytical method described above. Each experiment was carried out in at least triplicate. This method was used in Examples 7 and 13.
In this example the simultaneous skin permeation and metabolism rates of inocoterone acetate incorporated in the Carbopol 940 gels formulated using the compositions described in Example 7 are shown.

rat sebaceous gland = assay: In vivo antiandrogen activity test, rat: volume density of smooth endoplasmic reticulum of the sebaceous gland
prostate = assay: In vivo antiandrogen activity test, rat: prostate (systemic effect)
[3] = Hydrolysis in blank receptor solution; assay type: physicochemical; settings: 40% w/v polyethylene glycol 400/normal saline, 37° C., time course of permeation experiment
Source text: as §1

[4] = vehicle 10% Butyl laurate-90% Ethanol
[5] = vehicle 10% Ethyl laurate-90% Ethanol
[6] = vehicle 10% Ethyl oleate-90% Ethanol
[7] = vehicle 10% Isopropyl palmitate-90% Ethanol
[8] = vehicle 10% Propyl laurate-90% Ethanol
[9] = Carbopol 940 gel: inocoterone acetate 10.0, butyl laurate 6.0, ethanol 50.0% w/w
[10] = Carbopol 940 gel: inocoterone acetate 10.0, ethyl laurate 6.0, ethanol 50.0% w/w
[11] = Carbopol 940 gel: inocoterone acetate 10.0, isopropyl myristate 6.0, ethanol 50.0% w/w

CCC1=C2CC[C@]3(C)[C@@H](OC(C)=O)CC[C@H]3[C@@H]2CCC1=O [Inocoterone acetate, 3β-acetoxy-6-ethyl-3αβ-methyl-1,2,3,3a, 4,5,8,9,9a,9b-decahydro-7H-benz(e)inden-7-one]
transcutaneous penetration ([1]; isopropyl myristate-ethanol mixture, Example 3): increased transcutaneous penetration | metabolised at 5 h [1, 4]: 57.7% | metabolised at 5 h [1, 5]: 67.5% | metabolised at 5 h [1, 6]: 66.4% | metabolised at 5 h [1, 7]: 74.5% | metabolised at 5 h [1, 8]: 70.2% | metabolised at 5 h ([1]; vehicle Ethanol): 100% | Transdermal Flux Q1, Inocoterone Acetate [1, 4]: 39.9 × 10^2 μmoles/cm^2 /5 hrs | Transdermal Flux Q1, Total Inocoterone [1, 4]: 94.4 × 10^2 μmoles/cm^2 /5 hrs | Transdermal Flux Q1, Inocoterone Acetate [1, 5]: 28.1 × 10^2 μmoles/cm^2 /5 hrs | Transdermal Flux Q1, Total Inocoterone [1, 5]: 86.4 × 10^2 μmoles/cm^2 /5 hrs | Transdermal Flux Q1, Inocoterone Acetate [1, 6]: 18.5 × 10^2 μmoles/cm^2 /5 hrs | Transdermal Flux Q1, Total Inocoterone [1, 6]: 55.1 × 10^2 μmoles/cm^2 /5 hrs | Transdermal Flux Q1, Inocoterone Acetate [1, 7]: 9.4 × 10^2 μmoles/cm^2 /5 hrs | Transdermal Flux Q1, Total Inocoterone [1, 7]: 36.9 × 10^2 μmoles/cm^2 /5 hrs | Transdermal Flux Q1, Inocoterone Acetate [1, 8]: 25.8 × 10^2 μmoles/cm^2 /5 hrs | Transdermal Flux Q1, Total Inocoterone [1, 8]: 86.6 × 10^2 μmoles/cm^2 /5 hrs | Transdermal Flux Q1, Inocoterone Acetate ([1]; vehicle Ethanol): 0 × 10^2 μmoles/cm^2 /5 hrs | Transdermal Flux Q1, Total Inocoterone ([1]; vehicle Ethanol): 1.1 × 10^2 μmoles/cm^2 /5 hrs | Transdermal Flux Q1, Inocoterone Acetate [2, 9]: 45.2 × 10^2 μmoles/cm^2 /5 hours | Transdermal Flux Q1, Total Inocoterone [2, 9]: 111.4 × 10^2 μmoles/cm^2 /5 hours | Transdermal Flux Q1, Inocoterone Acetate [2, 10]: 38.4 × 10^2 μmoles/cm^2 /5 hours | Transdermal Flux Q1, Total Inocoterone [2, 10]: 91.1 × 10^2 μmoles/cm^2 /5 hours | Transdermal Flux Q1, Inocoterone Acetate [2, 11]: 36.2 × 10^2 μmoles/cm^2 /5 hours | Transdermal Flux Q1, Total Inocoterone [2, 11]: 99.0 × 10^2 μmoles/cm^2 /5 hours | metabolised at 5 h [2, 9]: 59.4% | metabolised at 5 h [2, 10]: 57.8% | metabolised at 5 h [2, 11]: 63.4% | inhibition of testosterone-induced increase in volume density of smooth endoplasmic reticulum vesicles in intermediate cells of sebaceous gland (rat sebaceous gland; 40% isopropyl myristate-60% ethanol, 0.5 mg/cm^2/day, 5 days, 5 cm^2, testosterone propionate-treated castrated rats): completely inhibited | inhibition of the effects of testosterone on the sebaceous gland (rat sebaceous gland; ethanol vehicle, 0.5 mg/cm^2/day, 5 days, 5 cm^2, testosterone propionate-treated castrated rats): 60% | volume density of smooth endoplasmic reticulum (SER) (rat sebaceous gland; intact rats and castrated rats stimulated with testosterone propionate, topical, 0.25 to 25 mg/rat/day, 1 to 3 weeks): dose related reduction in volume density of SER | efficacy in isopropyl myristate-ethanol mixture (rat sebaceous gland; isopropyl myristate-ethanol mixture compared with ethanol): greater efficacy | effect on prostate weight (prostate; intact and castrated testosterone propionate-treated rats, topical, any dose (0.25 to 25 mg/rat/day)): no significant effect on prostate weight at any dose | systemic antiandrogenic effect as evidenced by changes in the prostate (prostate; isopropyl myristate-ethanol mixture, topical 0.5 mg/cm^2/day, 5 days, testosterone propionate-treated castrated rats): resulted in a systemic anfiandrogenic effect | hydrolysis in the blank receptor solution [3]: No significant hydrolysis

CCC1=C2CC[C@]3(C)[C@@H](O)CC[C@H]3[C@@H]2CCC1=O [Inocoterone, 6-ethyl-3αβ-methyl-1,2,3,3a,4,5,8,9,9a,9b-decahydro-7H-benz(e)inden-3-ol-7-one]
Transdermal Flux Q1, Inocoterone [1, 4]: 54.5 × 10^2 μmoles/cm^2 /5 hrs | Transdermal Flux Q1, Inocoterone [1, 5]: 58.3 × 10^2 μmoles/cm^2 /5 hrs | Transdermal Flux Q1, Inocoterone [1, 6]: 36.6 × 10^2 μmoles/cm^2 /5 hrs | Transdermal Flux Q1, Inocoterone [1, 7]: 27.5 × 10^2 μmoles/cm^2 /5 hrs | Transdermal Flux Q1, Inocoterone [1, 8]: 60.8 × 10^2 μmoles/cm^2 /5 hrs | Transdermal Flux Q1, Inocoterone ([1]; vehicle Ethanol): 1.1 × 10^2 μmoles/cm^2 /5 hrs | Transdermal Flux Q1, Inocoterone [2, 9]: 66.2 × 10^2 μmoles/cm^2 /5 hours | Transdermal Flux Q1, Inocoterone [2, 10]: 52.7 × 10^2 μmoles/cm^2 /5 hours | Transdermal Flux Q1, Inocoterone [2, 11]: 62.8 × 10^2 μmoles/cm^2 /5 hours
